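Tested at 5 concentrations; 48 h exposure; 96-well plates; endpoints linearly interpolated, else capped at highest concentration. GI50 = concentration required for 50% inhibition of growth. The concentration for full growth arrest is given as TGI.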 Some results are limits rather than exact numbers.

Among the test systems are KM12 colon; SNB-19 CNS; OVCAR-4 ovarian; CAKI-1 renal; SK-MEL-5 melanoma; MOLT-4 leukemia; UO-31 renal; T-47D breast; SF-539 CNS; NCI/ADR-RES ovarian.
Assay in all cases: inhibition of tumour cell growth, NCI panel, 48 h

For the compound `COc1ccc(-n2nnnc2-c2c[nH]c3c(F)cc(F)cc23)cc1`, the GI50 was over 100 µM in the experiment on KM12 colon; 75.5 µM with SNB-19 CNS; 55 µM in the experiment with OVCAR-4 ovarian; over 100 µM in the experiment with CAKI-1 renal; over 100 µM in the experiment with SK-MEL-5 melanoma; over 100 µM in the experiment with MOLT-4 leukemia. Also, the GI50 in the experiment with UO-31 renal is 54 µM; with T-47D breast it was over 100 µM; in the experiment on SF-539 CNS, 52.8 µM; in the experiment on NCI/ADR-RES ovarian, 40.6 µM. The TGI in the experiment on KM12 colon, in the experiment with SNB-19 CNS, in the experiment on OVCAR-4 ovarian, in the experiment on CAKI-1 renal, with SK-MEL-5 melanoma and in the experiment on MOLT-4 leukemia was over 100 µM throughout. The TGI in the experiment with UO-31 renal, in the experiment with T-47D breast, with SF-539 CNS and in the experiment with NCI/ADR-RES ovarian was over 100 µM in each case.
Consider `C=C(CN1C(=O)[C@H]2CCCN2C(=O)c2ccccc21)c1ccc(C(=O)O)cc1`, for which the GI50 with KM12 colon, with SNB-19 CNS, with OVCAR-4 ovarian, in the experiment on CAKI-1 renal, in the experiment on SK-MEL-5 melanoma and in the experiment with MOLT-4 leukemia was over 100 µM in each case. The GI50 with UO-31 renal, in the experiment on T-47D breast, in the experiment on SF-539 CNS and in the experiment on NCI/ADR-RES ovarian was over 100 µM throughout. Further, the TGI with KM12 colon, in the experiment with SNB-19 CNS, in the experiment on OVCAR-4 ovarian, with CAKI-1 renal, in the experiment on SK-MEL-5 melanoma and with MOLT-4 leukemia was over 100 µM throughout. Besides, the TGI in the experiment on UO-31 renal, with T-47D breast, with SF-539 CNS and with NCI/ADR-RES ovarian was over 100 µM in each case.
